Source: US12365696B2, “Small-molecule focal adhesion kinase (FAK) inhibitors” (DANA-FARBER CANCER INSTITUTE, INC., priority 2019, dated 2025)
Read-outs that look alike come from different tables or passages of the source.

Legend:
Assay in all cases: KINOMEscan
Assay type in all cases: binding
MYO3A = MYO3A (Homo sapiens (Human), UniProt Q8NEV4); conditions: 10000 nM, read-out: Percent Control
RIOK1 = RIOK1 (Homo sapiens (Human), UniProt Q9BRS2); conditions: RIOK1, 10000 nM; read-out: Percent Control
ULK3 = ULK3 (Homo sapiens (Human), UniProt Q6PHR2); conditions: ULK3, 10000 nM; read-out: Percent Control
ULK3, sequence (Q6PHR2 whole entry): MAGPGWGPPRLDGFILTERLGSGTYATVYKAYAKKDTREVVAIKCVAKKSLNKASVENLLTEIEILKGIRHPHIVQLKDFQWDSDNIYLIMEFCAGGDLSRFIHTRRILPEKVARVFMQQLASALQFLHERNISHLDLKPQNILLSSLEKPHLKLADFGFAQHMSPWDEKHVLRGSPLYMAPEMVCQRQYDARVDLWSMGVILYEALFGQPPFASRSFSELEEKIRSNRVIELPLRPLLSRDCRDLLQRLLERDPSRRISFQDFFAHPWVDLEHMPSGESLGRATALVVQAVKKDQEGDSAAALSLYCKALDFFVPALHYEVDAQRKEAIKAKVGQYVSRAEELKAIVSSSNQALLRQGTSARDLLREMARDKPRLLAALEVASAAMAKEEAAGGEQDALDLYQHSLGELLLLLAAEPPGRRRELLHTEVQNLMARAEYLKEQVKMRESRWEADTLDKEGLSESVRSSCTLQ

CSF1R = CSF1R (Homo sapiens (Human), UniProt P07333); conditions: 10000 nM, read-out: Percent Control
WNK1 = WNK1 (Homo sapiens (Human), UniProt Q9H4A3); conditions: WNK1, 10000 nM; read-out: Percent Control
LOK = LOK (Homo sapiens (Human), UniProt O94804); conditions: 10000 nM, read-out: Percent Control
LOK, sequence (O94804 whole entry): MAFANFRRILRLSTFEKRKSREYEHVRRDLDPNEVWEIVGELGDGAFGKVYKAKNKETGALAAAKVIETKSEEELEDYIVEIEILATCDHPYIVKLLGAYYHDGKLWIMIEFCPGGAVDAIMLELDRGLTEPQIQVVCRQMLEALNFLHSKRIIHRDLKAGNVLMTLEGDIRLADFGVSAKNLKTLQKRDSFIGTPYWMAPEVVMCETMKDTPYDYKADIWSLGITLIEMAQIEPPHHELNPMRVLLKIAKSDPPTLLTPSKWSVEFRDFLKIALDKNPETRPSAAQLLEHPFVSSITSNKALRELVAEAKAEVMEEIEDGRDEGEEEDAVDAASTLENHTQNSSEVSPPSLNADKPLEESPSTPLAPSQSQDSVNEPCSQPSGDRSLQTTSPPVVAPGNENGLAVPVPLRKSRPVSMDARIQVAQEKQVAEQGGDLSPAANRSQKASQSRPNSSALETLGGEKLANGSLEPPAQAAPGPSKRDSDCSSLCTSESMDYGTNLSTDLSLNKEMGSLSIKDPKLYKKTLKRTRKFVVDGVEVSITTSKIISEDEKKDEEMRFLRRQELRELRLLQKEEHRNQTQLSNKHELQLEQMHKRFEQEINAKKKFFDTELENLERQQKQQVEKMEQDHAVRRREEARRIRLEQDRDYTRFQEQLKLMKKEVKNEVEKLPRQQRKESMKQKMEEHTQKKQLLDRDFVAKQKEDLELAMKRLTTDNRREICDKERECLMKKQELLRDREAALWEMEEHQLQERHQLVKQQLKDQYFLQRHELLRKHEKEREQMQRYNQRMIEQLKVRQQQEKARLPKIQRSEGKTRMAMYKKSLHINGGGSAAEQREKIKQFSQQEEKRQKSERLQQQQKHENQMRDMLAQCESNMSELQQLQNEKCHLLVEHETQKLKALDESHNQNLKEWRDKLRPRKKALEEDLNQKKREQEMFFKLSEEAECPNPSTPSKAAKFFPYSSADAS

CLK4 = CLK4 (Homo sapiens (Human), UniProt Q9HAZ1); conditions: CLK4, 10000 nM; read-out: Percent Control
CLK4, sequence (Q9HAZ1 whole entry): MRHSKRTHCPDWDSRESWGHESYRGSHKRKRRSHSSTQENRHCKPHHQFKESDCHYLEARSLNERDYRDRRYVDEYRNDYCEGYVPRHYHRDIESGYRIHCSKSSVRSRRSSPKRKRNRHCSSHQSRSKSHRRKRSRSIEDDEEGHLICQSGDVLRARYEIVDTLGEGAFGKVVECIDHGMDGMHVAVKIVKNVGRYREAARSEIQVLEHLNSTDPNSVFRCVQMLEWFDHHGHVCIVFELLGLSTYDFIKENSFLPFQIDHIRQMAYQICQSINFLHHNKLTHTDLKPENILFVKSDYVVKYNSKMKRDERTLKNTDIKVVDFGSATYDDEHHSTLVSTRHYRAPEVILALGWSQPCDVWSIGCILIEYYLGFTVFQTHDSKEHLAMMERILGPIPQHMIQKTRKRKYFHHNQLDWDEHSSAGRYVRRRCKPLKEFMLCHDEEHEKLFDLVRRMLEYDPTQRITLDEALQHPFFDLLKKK

RDGFRB = RDGFRB (Homo sapiens (Human), UniProt P09619); conditions: 10000 nM, read-out: Percent Control
LYN = LYN (Homo sapiens (Human), UniProt P07948); conditions: 10000 nM, read-out: Percent Control
LYN, sequence (P07948 whole entry): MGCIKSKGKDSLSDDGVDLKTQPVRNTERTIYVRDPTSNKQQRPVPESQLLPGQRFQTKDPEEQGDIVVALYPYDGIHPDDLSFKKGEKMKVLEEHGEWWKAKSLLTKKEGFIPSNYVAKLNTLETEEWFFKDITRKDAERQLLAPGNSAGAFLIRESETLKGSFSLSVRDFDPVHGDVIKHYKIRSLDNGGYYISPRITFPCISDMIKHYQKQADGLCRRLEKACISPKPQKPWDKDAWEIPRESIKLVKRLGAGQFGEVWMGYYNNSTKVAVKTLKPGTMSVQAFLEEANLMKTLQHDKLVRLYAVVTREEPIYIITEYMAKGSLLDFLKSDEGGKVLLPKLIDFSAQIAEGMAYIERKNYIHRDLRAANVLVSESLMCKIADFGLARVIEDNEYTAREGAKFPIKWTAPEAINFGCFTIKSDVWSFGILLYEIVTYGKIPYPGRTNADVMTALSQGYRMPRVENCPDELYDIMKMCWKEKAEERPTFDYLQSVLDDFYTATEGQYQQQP

CSF1R-autoinhibited = CSF1R-autoinhibited (Homo sapiens (Human), UniProt P07333); conditions: 10000 nM, read-out: Percent Control
TGFBR1 = TGFBR1 (Homo sapiens (Human), UniProt P36897); conditions: TGFBR1, 10000 nM; read-out: Percent Control
TGFBR1, sequence (P36897 34-503): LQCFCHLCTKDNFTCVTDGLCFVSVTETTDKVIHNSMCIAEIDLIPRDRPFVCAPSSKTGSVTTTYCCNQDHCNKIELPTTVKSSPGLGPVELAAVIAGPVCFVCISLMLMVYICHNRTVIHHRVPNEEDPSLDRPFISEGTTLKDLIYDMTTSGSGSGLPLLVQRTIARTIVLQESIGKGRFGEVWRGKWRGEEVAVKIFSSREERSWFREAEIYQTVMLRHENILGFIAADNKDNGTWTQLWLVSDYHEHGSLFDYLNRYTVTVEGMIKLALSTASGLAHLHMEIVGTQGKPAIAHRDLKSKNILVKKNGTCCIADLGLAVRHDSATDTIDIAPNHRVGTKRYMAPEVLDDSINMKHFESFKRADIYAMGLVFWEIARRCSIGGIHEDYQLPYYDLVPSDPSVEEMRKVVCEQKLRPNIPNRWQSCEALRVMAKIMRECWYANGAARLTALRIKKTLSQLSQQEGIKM

FES = FES (Homo sapiens (Human), UniProt P07332); conditions: 10000 nM, read-out: Percent Control
PIP5K1A = PIP5K1A (Homo sapiens (Human), UniProt Q99755); conditions: 10000 nM, read-out: Percent Control
MAK = MAK (Homo sapiens (Human), UniProt P20794); conditions: 10000 nM, read-out: Percent Control
MAK, sequence (P20794 whole entry): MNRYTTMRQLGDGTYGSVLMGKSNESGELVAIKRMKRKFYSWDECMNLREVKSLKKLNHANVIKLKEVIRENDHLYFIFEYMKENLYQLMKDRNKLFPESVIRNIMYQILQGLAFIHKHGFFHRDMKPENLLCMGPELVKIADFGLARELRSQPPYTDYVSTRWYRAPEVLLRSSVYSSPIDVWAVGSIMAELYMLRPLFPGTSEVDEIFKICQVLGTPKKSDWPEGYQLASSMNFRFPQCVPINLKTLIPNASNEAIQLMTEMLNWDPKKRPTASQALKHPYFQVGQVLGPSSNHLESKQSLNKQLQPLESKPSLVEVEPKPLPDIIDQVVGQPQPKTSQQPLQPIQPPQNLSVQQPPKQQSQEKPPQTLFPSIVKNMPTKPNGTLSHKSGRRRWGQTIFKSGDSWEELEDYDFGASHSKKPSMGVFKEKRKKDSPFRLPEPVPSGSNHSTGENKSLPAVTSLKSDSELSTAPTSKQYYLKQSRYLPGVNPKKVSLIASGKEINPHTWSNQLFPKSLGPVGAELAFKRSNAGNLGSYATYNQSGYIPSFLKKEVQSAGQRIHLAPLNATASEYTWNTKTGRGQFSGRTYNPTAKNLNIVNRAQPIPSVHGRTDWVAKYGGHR

GSK3A = GSK3A (Homo sapiens (Human), UniProt P49840); conditions: 10000 nM, read-out: Percent Control
EGFR(L858R, T790M) = EGFR(L858R, T790M) (Homo sapiens (Human), UniProt P00533, L858R/T790M); conditions: 10000 nM, read-out: Percent Control
EGFR(S752-I759del) = EGFR(S752-I759del) (Homo sapiens (Human), UniProt P00533, DEL752-759); conditions: 10000 nM, read-out: Percent Control
DMPK2 = DMPK2 (Homo sapiens (Human), UniProt Q6DT37); conditions: DMPK2, 10000 nM; read-out: Percent Control
ERK2 = ERK2 (Homo sapiens (Human), UniProt P28482); conditions: ERK2, 10000 nM; read-out: Percent Control
CDKL1 = CDKL1 (Homo sapiens (Human), UniProt Q00532); conditions: CDKL1, 10000 nM; read-out: Percent Control
PIK3CG = PIK3CG (Homo sapiens (Human), UniProt P48736); conditions: 10000 nM, read-out: Percent Control
PAK7 = PAK7 (Homo sapiens (Human), UniProt Q9P286); conditions: PAK7, 10000 nM; read-out: Percent Control
FLT1 = FLT1 (Homo sapiens (Human), UniProt P17948); conditions: FLT1, 10000 nM; read-out: Percent Control
FGFR4 = FGFR4 (Homo sapiens (Human), UniProt P22455); conditions: FGFR4, 10000 nM; read-out: Percent Control
FGFR4, sequence (P22455 22-802): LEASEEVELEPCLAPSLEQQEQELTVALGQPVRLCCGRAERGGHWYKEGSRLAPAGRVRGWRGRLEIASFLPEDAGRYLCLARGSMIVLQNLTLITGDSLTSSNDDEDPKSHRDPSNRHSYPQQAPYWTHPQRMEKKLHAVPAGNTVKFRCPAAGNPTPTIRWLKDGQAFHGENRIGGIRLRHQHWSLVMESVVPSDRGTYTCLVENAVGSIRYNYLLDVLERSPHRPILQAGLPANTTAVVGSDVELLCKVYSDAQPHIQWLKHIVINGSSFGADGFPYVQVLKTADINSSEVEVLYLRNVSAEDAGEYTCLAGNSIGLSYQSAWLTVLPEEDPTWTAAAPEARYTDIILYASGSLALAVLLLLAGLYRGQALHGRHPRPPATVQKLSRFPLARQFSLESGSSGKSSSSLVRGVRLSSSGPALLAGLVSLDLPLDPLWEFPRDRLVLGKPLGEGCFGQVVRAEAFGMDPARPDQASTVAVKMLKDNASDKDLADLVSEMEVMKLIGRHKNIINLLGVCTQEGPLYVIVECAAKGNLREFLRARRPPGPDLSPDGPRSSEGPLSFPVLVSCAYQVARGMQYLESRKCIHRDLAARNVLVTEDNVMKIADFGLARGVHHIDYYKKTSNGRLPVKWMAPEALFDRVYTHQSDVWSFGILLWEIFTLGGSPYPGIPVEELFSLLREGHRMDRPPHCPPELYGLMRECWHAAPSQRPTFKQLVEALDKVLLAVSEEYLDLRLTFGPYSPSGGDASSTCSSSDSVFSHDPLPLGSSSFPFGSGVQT

S6K1 = S6K1 (Homo sapiens (Human), UniProt P23443); conditions: S6K1, 10000 nM; read-out: Percent Control
S6K1, sequence (P23443 whole entry): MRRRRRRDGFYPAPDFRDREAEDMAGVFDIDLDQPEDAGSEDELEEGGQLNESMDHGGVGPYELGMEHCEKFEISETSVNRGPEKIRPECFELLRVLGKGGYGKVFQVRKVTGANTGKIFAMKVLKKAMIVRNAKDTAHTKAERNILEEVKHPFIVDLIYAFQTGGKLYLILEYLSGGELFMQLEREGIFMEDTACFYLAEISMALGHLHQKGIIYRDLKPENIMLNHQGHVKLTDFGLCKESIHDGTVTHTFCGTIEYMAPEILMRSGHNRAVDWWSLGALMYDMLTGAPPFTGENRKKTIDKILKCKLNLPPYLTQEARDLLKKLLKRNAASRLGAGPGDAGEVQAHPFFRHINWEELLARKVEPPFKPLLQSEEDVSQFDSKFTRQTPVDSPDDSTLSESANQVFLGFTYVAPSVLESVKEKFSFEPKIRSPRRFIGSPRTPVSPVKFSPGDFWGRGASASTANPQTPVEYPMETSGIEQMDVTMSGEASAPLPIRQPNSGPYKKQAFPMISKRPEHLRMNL

WNK2 = WNK2 (Homo sapiens (Human), UniProt Q9Y3S1); conditions: WNK2, 10000 nM; read-out: Percent Control
MET(M1250T) = MET(M1250T) (Homo sapiens (Human), UniProt P08581, M1250T); conditions: 10000 nM, read-out: Percent Control
PAK3 = PAK3 (Homo sapiens (Human), UniProt O75914); conditions: PAK3, 10000 nM; read-out: Percent Control
DYRK2 = DYRK2 (Homo sapiens (Human), UniProt Q92630); conditions: DYRK2, 10000 nM; read-out: Percent Control
ERN1 = ERN1 (Homo sapiens (Human), UniProt O75460); conditions: ERN1, 10000 nM; read-out: Percent Control
BTK = BTK (Homo sapiens (Human), UniProt Q06187); conditions: 10000 nM, read-out: Percent Control
[1] = target: RSK4(Kin.Dom.2-C-terminal) (Homo sapiens (Human), UniProt Q9UK32); conditions: 10000 nM, read-out: Percent Control
PIK3C2B = PIK3C2B (Homo sapiens (Human), UniProt O00750); conditions: 10000 nM, read-out: Percent Control
DYRK1B = DYRK1B (Homo sapiens (Human), UniProt Q9Y463); conditions: 10000 nM, read-out: Percent Control
ITK = ITK (Homo sapiens (Human), UniProt Q08881); conditions: 10000 nM, read-out: Percent Control

For `COc1cc(N2CCC(N3CCN(C)CC3)CC2)ccc1Nc1ncc2c(n1)N(C)c1sc(C)nc1C(=O)N2` [Compound 3, 6-((2-methoxy-4-(4-(4-methylpiperazin-1-yl)piperidin-1-yl)phenyl)amino)-2,4-dimethyl-4,9-dihydro-10H-pyrimido[5,4-b]thiazolo[5,4-e][1,4]diazepin-10-one], the remaining binding at 10 µM (MYO3A) was 79%, the remaining binding at 10 µM (RIOK1) was 62% and the remaining binding at 10 µM (ULK3) was 95%. The remaining binding at 10 µM (CSF1R) was 36%, the remaining binding at 10 µM (WNK1) was 100% and the remaining binding at 10 µM (LOK) was 84%. The remaining binding at 10 µM (CLK4) was 76%, the remaining binding at 10 µM (RDGFRB; RDGFRB) was 50% and the remaining binding at 10 µM (LYN) was 69%. It also gave a remaining binding at 10 µM (CSF1R-autoinhibited) of 90%, a remaining binding at 10 µM (TGFBR1) of 88% and a remaining binding at 10 µM (FES) of 81%. The remaining binding at 10 µM (PIP5K1A) was 100%, the remaining binding at 10 µM (MAK) was 71% and the remaining binding at 10 µM (GSK3A) was 82%. The remaining binding at 10 µM (EGFR(L858R, T790M)) was 100%, the remaining binding at 10 µM (EGFR(S752-I759del)) was 47% and the remaining binding at 10 µM (DMPK2) was 91%. For the same molecule, the remaining binding at 10 µM (ERK2) was 60%, the remaining binding at 10 µM (CDKL1) was 72% and the remaining binding at 10 µM (PIK3CG) was 93%. The remaining binding at 10 µM (PAK7) was 97%, the remaining binding at 10 µM (FLT1) was 87% and the remaining binding at 10 µM (FGFR4) was 90%. For the same molecule, the remaining binding at 10 µM (S6K1) was 100%, the remaining binding at 10 µM (WNK2) was 74% and the remaining binding at 10 µM (MET(M1250T)) was 82%. It also gave a remaining binding at 10 µM (PAK3) of 78%, a remaining binding at 10 µM (DYRK2) of 100% and a remaining binding at 10 µM (ERN1) of 93%. The remaining binding at 10 µM (BTK) was 100%, the remaining binding at 10 µM [1] was 69% and the remaining binding at 10 µM (PIK3C2B) was 86%. The remaining binding at 10 µM (DYRK1B) was 69% and the remaining binding at 10 µM (ITK) was 87%.
`COc1cc(N2CCC(N3CCN(C)CC3)CC2)ccc1Nc1ncc2c(n1)N(C)c1sc(C)nc1C(=O)N2C` [Compound 5, 6-((2-methoxy-4-(4-(4-methylpiperazin-1-yl)piperidin-1-yl)phenyl)amino)-2,4,9-trimethyl-4,9-dihydro-10H-pyrimido[5,4-b]thiazolo[5,4-e][1,4]diazepin-10-one] gave a remaining binding at 10 µM (MYO3A) of 100%, a remaining binding at 10 µM (RIOK1) of 100% and a remaining binding at 10 µM (ULK3) of 97%. The remaining binding at 10 µM (CSF1R) was 80%, the remaining binding at 10 µM (WNK1) was 89% and the remaining binding at 10 µM (LOK) was 99%. For the same molecule, the remaining binding at 10 µM (CLK4) was 85%, the remaining binding at 10 µM (RDGFRB; PDGFRB) was 100% and the remaining binding at 10 µM (LYN) was 100%. It also gave a remaining binding at 10 µM (CSF1R-autoinhibited) of 100%, a remaining binding at 10 µM (TGFBR1) of 100% and a remaining binding at 10 µM (FES) of 97%. The remaining binding at 10 µM (PIP5K1A) was 100%, the remaining binding at 10 µM (MAK) was 100% and the remaining binding at 10 µM (GSK3A) was 100%. It also gave a remaining binding at 10 µM (EGFR(L858R, T790M)) of 80%, a remaining binding at 10 µM (EGFR(S752-I759del)) of 100% and a remaining binding at 10 µM (DMPK2) of 93%. The remaining binding at 10 µM (ERK2) was 98%, the remaining binding at 10 µM (CDKL1) was 80% and the remaining binding at 10 µM (PIK3CG) was 88%. The remaining binding at 10 µM (PAK7) was 88%, the remaining binding at 10 µM (FLT1) was 100% and the remaining binding at 10 µM (FGFR4) was 88%. The remaining binding at 10 µM (S6K1) was 100%, the remaining binding at 10 µM (WNK2) was 100% and the remaining binding at 10 µM (MET(M1250T)) was 100%. It also gave a remaining binding at 10 µM (PAK3) of 92%, a remaining binding at 10 µM (DYRK2) of 100% and a remaining binding at 10 µM (ERN1) of 88%. It also gave a remaining binding at 10 µM (BTK) of 100%, a remaining binding at 10 µM [1] of 67% and a remaining binding at 10 µM (PIK3C2B) of 100%. It also gave a remaining binding at 10 µM (DYRK1B) of 87% and a remaining binding at 10 µM (ITK) of 99%.
